{"source": "paper PMC8575457", "about": "“Molecular reconstruction of recurrent evolutionary switching in olfactory receptor specificity” (eLife, 2021)", "experiment_in_all_cases": "single sensillum extracellular recording, Ir decoder neuron", "settings_in_all_cases": "1% v/v odor in water, 10 ul, 500 ms pulse; agonist", "key": {"DmelIr75b": {"target": "T1, DmelIr75b (Drosophila melanogaster, UniProt A0A1S6EMU4, T523S)", "T1 construct": "gene IR75b; cDNA, UAS transgene expressed in D. melanogaster Ir decoder neuron with endogenous Ir8a; predicted heterotetramer; with Ionotropic receptor 8a (D. melanogaster, endogenous)", "T1 sequence (A0A1S6EMU4 1-609 T523S)": "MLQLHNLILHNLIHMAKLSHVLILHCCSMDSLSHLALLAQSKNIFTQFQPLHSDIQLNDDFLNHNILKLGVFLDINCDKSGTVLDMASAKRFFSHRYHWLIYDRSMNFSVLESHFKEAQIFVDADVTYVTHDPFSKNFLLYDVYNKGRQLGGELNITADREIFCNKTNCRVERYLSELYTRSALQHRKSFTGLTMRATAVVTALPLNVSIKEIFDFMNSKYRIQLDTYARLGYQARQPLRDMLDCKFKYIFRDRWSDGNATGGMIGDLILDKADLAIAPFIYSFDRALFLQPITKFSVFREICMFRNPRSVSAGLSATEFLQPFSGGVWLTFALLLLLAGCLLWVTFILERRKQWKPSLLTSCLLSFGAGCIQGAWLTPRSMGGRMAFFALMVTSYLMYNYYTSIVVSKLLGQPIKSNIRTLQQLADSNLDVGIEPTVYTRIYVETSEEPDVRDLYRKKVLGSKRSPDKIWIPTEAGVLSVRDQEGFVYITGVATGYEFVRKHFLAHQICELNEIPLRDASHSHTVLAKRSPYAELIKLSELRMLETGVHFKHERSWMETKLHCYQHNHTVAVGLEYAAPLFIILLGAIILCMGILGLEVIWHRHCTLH", "T1 sequence (Q9W365 18-936 partner)": "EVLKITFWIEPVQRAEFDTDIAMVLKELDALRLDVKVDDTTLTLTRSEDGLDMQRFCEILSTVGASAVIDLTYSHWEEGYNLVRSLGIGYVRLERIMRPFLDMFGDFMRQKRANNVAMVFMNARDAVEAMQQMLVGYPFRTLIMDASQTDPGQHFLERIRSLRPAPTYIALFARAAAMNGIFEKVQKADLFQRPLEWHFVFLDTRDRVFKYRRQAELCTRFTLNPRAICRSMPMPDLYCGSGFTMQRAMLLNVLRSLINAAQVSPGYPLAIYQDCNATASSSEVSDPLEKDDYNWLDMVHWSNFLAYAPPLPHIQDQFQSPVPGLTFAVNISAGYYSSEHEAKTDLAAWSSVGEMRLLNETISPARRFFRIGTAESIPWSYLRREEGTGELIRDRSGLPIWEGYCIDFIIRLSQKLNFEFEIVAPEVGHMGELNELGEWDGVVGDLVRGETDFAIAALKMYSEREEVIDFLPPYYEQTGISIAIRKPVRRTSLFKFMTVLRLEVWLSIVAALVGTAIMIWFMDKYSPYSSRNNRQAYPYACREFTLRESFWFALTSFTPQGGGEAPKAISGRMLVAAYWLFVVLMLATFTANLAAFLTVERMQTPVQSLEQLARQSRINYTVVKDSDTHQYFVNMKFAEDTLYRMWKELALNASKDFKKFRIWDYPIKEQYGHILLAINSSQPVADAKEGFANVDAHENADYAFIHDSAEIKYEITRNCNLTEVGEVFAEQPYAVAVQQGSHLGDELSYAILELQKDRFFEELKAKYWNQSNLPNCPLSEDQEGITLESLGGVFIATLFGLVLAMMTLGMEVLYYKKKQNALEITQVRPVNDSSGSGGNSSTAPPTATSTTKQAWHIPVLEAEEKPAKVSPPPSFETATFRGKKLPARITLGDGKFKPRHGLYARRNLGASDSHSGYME", "assay_type": "cell-based"}, "DmelIr75b^DsecS1 [1]": {"target": "T2, DmelIr75b^DsecS1 (Drosophila melanogaster, UniProt A0A1S6EMU4, I210K/M217L/K220Q/N259S/I277M/F289L/Q291K/P473S/G492S/A520T/T523S, form not given)", "T2 construct": "gene IR75b; UAS transgene in Ir decoder neuron; with Ionotropic receptor 8a (D. melanogaster, endogenous)", "T2 sequence (A0A1S6EMU4 1-609 I210K/M217L/K220Q/N259S/I277M/F289L/Q291K/P473S/G492S/A520T/T523S)": "T1 sequence (A0A1S6EMU4 1-609 T523S) with I210K, M217L, K220Q, N259S, I277M, F289L, Q291K, P473S, G492S, A520T", "T2 sequence (Q9W365 18-936 partner)": "T1 sequence (Q9W365 18-936 partner)", "assay_type": "cell-based"}, "DmelIr75b^DsecS1 [2]": {"target": "T3, DmelIr75b^DsecS1 (Drosophila melanogaster, UniProt A0A1S6EMU4, I210K/M217L/K220Q/N259S/I277M/F289L/Q291K, form not given)", "T3 construct": "gene IR75b; UAS transgene in Ir decoder neuron; with Ionotropic receptor 8a (D. melanogaster, endogenous)", "T3 sequence (A0A1S6EMU4 1-609 I210K/M217L/K220Q/N259S/I277M/F289L/Q291K)": "T1 sequence (A0A1S6EMU4 1-609 T523S) with I210K, M217L, K220Q, N259S, I277M, F289L, Q291K, S523T", "T3 sequence (Q9W365 18-936 partner)": "T1 sequence (Q9W365 18-936 partner)", "assay_type": "cell-based"}, "DsecIr75b": {"target": "T4, DsecIr75b (Drosophila sechellia, UniProt A0A1S6EMU3)", "T4 construct": "gene IR75b; cDNA, UAS transgene expressed in D. melanogaster Ir decoder neuron with D. melanogaster Ir8a; predicted heterotetramer; with Ionotropic receptor 8a (D. melanogaster, endogenous)", "T4 sequence (A0A1S6EMU3 1-609)": "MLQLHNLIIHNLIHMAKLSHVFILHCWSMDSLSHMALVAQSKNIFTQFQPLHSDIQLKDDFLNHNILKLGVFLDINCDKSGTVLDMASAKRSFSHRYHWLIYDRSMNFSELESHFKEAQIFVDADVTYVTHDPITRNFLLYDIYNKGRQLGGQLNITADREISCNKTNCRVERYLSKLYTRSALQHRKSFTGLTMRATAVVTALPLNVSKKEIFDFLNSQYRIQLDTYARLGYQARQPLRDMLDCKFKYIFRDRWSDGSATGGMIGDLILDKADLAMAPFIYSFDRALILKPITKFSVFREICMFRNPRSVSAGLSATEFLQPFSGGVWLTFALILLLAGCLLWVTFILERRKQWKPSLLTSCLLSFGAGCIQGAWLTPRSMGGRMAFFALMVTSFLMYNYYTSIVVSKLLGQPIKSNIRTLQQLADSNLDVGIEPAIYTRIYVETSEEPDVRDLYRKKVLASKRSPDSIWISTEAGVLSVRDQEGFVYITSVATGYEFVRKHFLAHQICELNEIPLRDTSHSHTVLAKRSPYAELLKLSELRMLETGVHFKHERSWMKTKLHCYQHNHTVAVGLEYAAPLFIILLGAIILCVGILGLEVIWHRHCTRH", "T4 sequence (Q9W365 18-936 partner)": "T1 sequence (Q9W365 18-936 partner)", "assay_type": "cell-based, Drosophila melanogaster"}}, "note": "Positions count from the first letter of the chain named.", "data": [{"smiles": "CCCCCC(=O)O", "note": "[C6, hexanoic acid]", "values": [{"measurement": "solvent-corrected response (spikes/s)", "setting": "DmelIr75b", "value": "mutation of the hotspot in DmelIr75b is sufficient to confer novel responses to C5 and C6"}, {"measurement": "solvent-corrected response (spikes/s)", "setting": "DmelIr75b^DsecS1 [1]", "value": "DmelIr75b^DsecS1,4mutS2 still has a significantly increased sensitivity to C6 when compared with DmelIr75b"}, {"measurement": "solvent-corrected response (spikes/s)", "setting": "DmelIr75b^DsecS1 [2]", "value": "DmelIr75b^DsecS1, with significantly increased responses to C6"}, {"measurement": "solvent-corrected response (spikes/s)", "setting": "DsecIr75b", "value": "its response to C6 is significantly smaller than that of DsecIr75b"}]}]}
